Data from patent US20060153932A1, “Method of treating hyperphosphataemia using lanthanum hydroxycarbonate” (Shire Pharmaceuticals, Inc., priority 2004, published 2006).

Experiments:
[1] = 4-week oral toxicity study in rats; details: 103 or 1030 mg lanthanum/kg/day for 4 weeks
Procedure: A study was conducted to assess the toxicity of lanthanum hydroxycarbonate. Rats were dosed orally with lanthanum hydroxycarbonate (103 or 1030 mg lanthanum/kg/day), lanthanum carbonate tetrahydrate (103 or 1030 mg lanthanum/kg/day) or vehicle for 4 weeks.

[2] = In vitro phosphorus binding of lanthanum compounds
Procedure: In order to evaluate the efficacy of lanthanum hydroxycarbonate as a phosphate binder, the in vitro phosphorus binding of lanthanum hydroxycarbonate and lanthanum carbonate tetrahydrate were measured using the methodology described below:
The equivalent of 1 g elemental lanthanum as either lanthanum hydroxycarbonate or as lanthanum carbonate tetrahydrate was added to 500 mL of 0.1N HCl at 37° C. and adjusted to pH 1 with HCl which contained 300 mg of phosphorus. The preparation was stirred and sampled at regular intervals. This sample was filtered and the filtrate measured for phosphorus content using a Sigma Diagnostics Kit for Inorganic Phosphorus determination. The loss of phosphorus from the filtrate represents the amount of phosphorus bound by lanthanum and precipitated then retained on the filter.

Row | SMILES | Plasma exposure to lanthanum [1] | rates of in vitro phosphate binding as compared to lanthanum carbonate tetrahydrate ([2]; dosed at the same level of elemental lanthanum) | more effective at binding phosphate in vitro, compared to lanthanum carbonate tetrahydrate ([2]; pH 1, same level of elemental lanthanum)
1 | O.O.O.O.O=C([O-])[O-].O=C([O-])[O-].O=C([O-])[O-].[La+3].[La+3] [lanthanum carbonate tetrahydrate, Lanthanum carbonate tetrahydrate] | similar |  | 
2 | O=C([O-])[O-].[La+3].[OH-] [lanthanum hydroxycarbonate] |  | improved rates of in vitro phosphate binding | approximately 50%
